These results are taken from US6995272B2, “Crystal form of N-(4-trifluoromethylphenyl)-5-methylisoxazole-4-carboxamide” (Sanofi-Aventis Deutschland GmbH, priority 1997, dated 2006).

Data set [1] is described as follows: Stability of the first crystal modification on storage (X-ray diffraction pattern). It counts as physicochemical. Conditions: +40° C./75% relative humidity.
The test system of data set [2] is humans who suffer from rheumatic arthritis. The data set is described as follows: Efficacy in humans who suffer from rheumatic arthritis. It counts as in vivo. Conditions: drug comprising an effective content.
The nature of data set [3]: Stability of the first crystal modification on storage (X-ray diffraction pattern). Format: physicochemical. The method, then: Stability of the First Crystal Modification Samples of The first crystal modification were prepared as in Example 1 and were stored at various temperatures at atmospheric humidity. After the stated times, samples were taken and an X-ray diffraction pattern was prepared as in Example 1. […] For preparing the calibration curve for the quantitative determination, the reflection at 2θ=8.35° was used for phase 1 and the reflection at 2θ=16.1° was used for phase 2. The ratios of the corresponding peak heights were calculated and were correlated with the contents of phase 2. The limit of the method is 0.3%. The sample after storage for 1 month at 60° C. contains about 76% of the second crystal modification according to this method.

The nature of a further data set: Solubility in water. It counts as physicochemical. Conditions: for Solubility in water, result: water at 37° C., sampling 5 hours, UV detection. From the text:
Solubility in Water [table]

Values after ≈ are worked out from the molar mass of the structure shown.

Regarding `Cc1oncc1C(=O)Nc1ccc(C(F)(F)F)cc1` [first crystal modification, N-(4-trifluoromethylphenyl)-5-methylisoxazole-4-carboxamide], the Crystal modification result was “First” in data set [1] (1 month); “First” in data set [1] (3 months); “First” in data set [1] (6 months); “First” in data set [3] (1 month, +25° C.); “First” in data set [3] (1 month, +40° C.); “First” in data set [3] (1 month, −15° C.). The Crystal modification result is reported as “First” in data set [3] (3 months, +25° C.); “First” in data set [3] (3 months, +40° C.); “Second” in data set [3] (3 months, +60° C.); “First” in data set [3] (3 months, −15° C.); “First” in data set [3] (6 months, +25° C.); “First” in data set [3] (6 months, +40° C.). The Crystal modification entry in data set [3] (6 months, −15° C.) is listed as “First”. In data set [2], the “efficacy in comparison with a drug comprising the second crystal modification” value is “same efficacy”. The “stability (not converted into the second crystal modification)” value in data set [3] (temperature range from −15° C. to +40° C.) was “stable”. Moreover, the “Solubility in water, result” value in the data set “Solubility in water” was 38 mg dissolved in 1 liter of water at 37 °C. Further, the solubility in “Solubility in water” (water, 37 °C, water, thermodynamic from solid, water, 37° C., read-out: water solubility (amount that can be dissolved)) was found to be 38 µg/mL (≈ 141 µM).

As to `Cc1oncc1C(=O)Nc1ccc(C(F)(F)F)cc1` [second crystal modification, N-(4-trifluoromethylphenyl)-5-methylisoxazole-4-carboxamide], in “Solubility in water”, the “Solubility in water, result” value is 25 mg dissolved in 1 liter of water at 37 °C. In addition, in “Solubility in water” (water, 37° C.), the “water solubility (amount that can be dissolved)” value is 25 µg/mL (≈ 92.5 µM).
